Measured values: patent US10611765B2, “Pyrrolopyrimidine derivatives as Mps1/TTK kinase inhibitors” (Ohio State Innovation Foundation, priority 2014, dated 2020)
pIC50: −log10 of the molar value.

Experiments:
Type in all cases: cell-based
[1] = system: CAL-51; test: MTS anti-proliferative assay, CAL-51; conditions: Homo sapiens, 168 h, CAL-51, TNBC, basal, treatment for 7 days
Experimental: (§1) The anti-proliferative effects and IC50 values of the compounds in the BC cell line panel were determined by MTS assay.
(§2) The cells, except Sk-Br-3, AU565 and BT-474 were maintained in a mixture of Dulbecco's modified Eagle's medium and Ham's F12 medium (1:1) (DMEM/F12) without phenol red supplemented with 5% fetal bovine serum (FBS) and 1× antibiotic-antimycotic (100 U/mL penicillin G sodium, 100 μg/mL streptomycin sulfate and 0.25 μg/mL amphotericin B) and were plated separately in flasks in a humidified incubator (5% CO2: 95% air, 37° C.). The media used for Sk-Br-3, AU565 and BT-474 cell lines was described in (1) Brueggemeier et al., J. Steroid Biochem. Mol. Biol., 2005; 95:129-136; and (2) Diaz-Cruz et al., J. Clin. Endocrinol. Metab., 2005; 90:2563-2570. The media were changed every 2-days. When the cells grew to about 80% confluence, cells were washed twice with calcium- and magnesium-free phosphate-buffered saline (PBS, pH 7.4), and then trypsinized with 0.05% trypsin-5.3 mm EDTA. The trypsinization was stopped by addition of culture medium with 5% FBS. After centrifugation, the dissociated cells were resuspended in the same medium and subcultured into 75-cm^2 culture flasks at a ratio of 1:5 flasks.
(§3) The BC cells were seeded at the density of 1,000 cells per well (100 μL) into 96 well plate in DMEM/F-12 (1:1), supplemented with 5% (v/v) FCS and incubated overnight at 37° C. Test compounds are solubilized in dimethyl sulfoxide (DMSO), diluted in cell culture medium to a range of final assay concentrations of 1 nM to 10 μM, added to cells and incubated for 7 days at 37° C. The medium including the test compound are refreshed at days 3 and 5. The MTS assay are carried out by using the CellTiter 96® AQueous One Solution Cell Proliferation Assay kit following the manufacturer's instruction.

[2] = system: HCC1937; test: MTS anti-proliferative assay, HCC1937; conditions: Homo sapiens, 168 h, HCC1937, TNBC, basal, treatment for 7 days
Experimental: as §1, §2, §3

[3] = system: MDA-MB-468; test: MTS anti-proliferative assay, MDA-MB-468; conditions: Homo sapiens, 168 h, MDA-MB-468, TNBC, basal B, treatment for 7 days
Experimental: as §1, §2, §3

[4] = system: CAMA-1; test: MTS anti-proliferative assay, CAMA-1; conditions: Homo sapiens, 168 h, CAMA-1, luminal, treatment for 7 days
Experimental: as §1, §2, §3

[5] = system: Hs578T; test: MTS anti-proliferative assay, Hs578T; conditions: Homo sapiens, Hs-578T, 168 h, TNBC, basal B, treatment for 7 days
Experimental: as §1, §2, §3

[6] = system: MCF-7; test: MTS anti-proliferative assay, MCF-7; conditions: Homo sapiens, MCF7, 168 h, MCF-7, luminal A, treatment for 7 days
Experimental: as §1, §2, §3

[7] = system: BT-474; test: MTS anti-proliferative assay, BT-474; conditions: Homo sapiens, 168 h, BT-474, luminal B, treatment for 7 days
Experimental: as §1, §2, §3

[8] = system: panel of breast cancer cell lines; test: Anti-proliferative assays, panel of BC cell lines (overall statements); conditions: for potency as compared to Mps1-IN-1: in some or all of the cell based assays in the panel
Experimental: This example describes the development of novel small molecule Mps1/TTK inhibitors as targeted therapies for TNBC and other aggressive BC using drug discovery technologies. Using computational modeling, medicinal chemistry, biochemistry and cell culture assays, the inventors have identified novel small molecules as potential Mps1/TTK inhibitors. The compounds were evaluated in anti-proliferative assays of a panel of 15 BC cell lines and further examined for their ability to inhibit a variety of Mps1-dependent biological functions.
as §1, §2, §3

[9] = system: normal breast epithelial cells; test: Primary cultures of normal breast epithelial cells; conditions: up to 20 μM
Experimental: No notable cytotoxicity was observed after 24 hours of treatment at concentrations as high as 10 μM.

[10] = system: Cal-51 cells; test: Spindle checkpoint assay, Cal-51; conditions: for abrogating the spindle checkpoint: Cal-51, at 1 μM
Experimental: For spindle checkpoint assays, S-phase arrested cells treated with candidate compounds were released into medium containing the spindle poison nocodazole. Because the spindle checkpoint prevents the metaphase to anaphase transition in the presence of spindle damage, compounds that block the spindle checkpoint will lead to a decreased number of mitotic cells in the presence of nocodazole. Briefly, cells were arrested in S-phase with a 24 hour treatment with 2 mM thymidine. Three hours after removing thymidine to release cells from S-phase arrest, nocodazole was added at 200 ng/mL. After 12 hours in the presence of nocodazole, cells were fixed and stained with mouse anti-cyclin B and Hoechst, and the percentage of cyclin B positive cells with condensed chromosomes was determined in triplicate samples.

`COc1cc(N2CCC(O)CC2)ccc1Nc1nc(Nc2ccccc2S(=O)(=O)C(C)C)c2cc[nH]c2n1` [Compound 1, 1-(4-((4-((2-(isopropylsulfonyl)phenyl)amino)-7H-pyrrolo[2,3-d]pyrimidin-2-yl)amino)-3-methoxyphenyl)piperidin-4-ol] gave a pIC50 [1] of 6.64, a pIC50 [2] of 6.14 and a pIC50 [3] of 6.72. It also gave a pIC50 [4] of 6.44, a pIC50 [5] of less than 5.00 and a pIC50 [6] of 6.36. The pIC50 [7] was less than 5.00, the “potency as compared to Mps1-IN-1” value [8] was “significantly more potent” and the “anti-proliferative effect, selectivity toward TNBC cells” value ([8]; preliminary studies of the initial series) was “moderate selectivity”. For the same molecule, the “inhibition of normal breast epithelial cells” value [9] was “no inhibition or incomplete dose-response curves”, the “abrogating the spindle checkpoint” value [10] was “more effective than IN-1, AZ3146, or compound 5” and the “ability of cells to arrest in response to nocodazole” value ([10]; Cal-51, nocodazole 200 ng/mL, 12 hours) was “dose-dependent reduction”.
In the case of `COc1cc(N2CCOCC2)ccc1Nc1nc(NC2CCCCC2)c2cc[nH]c2n1` [Compound 13, N4-cyclohexyl-N2-(2-methoxy-4-morpholinophenyl)-7H-pyrrolo[2,3-d]pyrimidine-2,4-diamine], the pIC50 [1] was 6.35, the pIC50 [2] was 5.96 and the pIC50 [3] was 6.24. For the same molecule, the pIC50 [4] was 5.96, the pIC50 [5] was less than 5.00 and the pIC50 [6] was less than 5.00. The pIC50 [7] was 7.30, the “potency as compared to Mps1-IN-1” value [8] was “significantly more potent” and the “inhibition of normal breast epithelial cells” value [9] was “no inhibition or incomplete dose-response curves”. The “abrogating the spindle checkpoint” value [10] was “most effective”.
